Structures can show the parent of a compound that is named as a salt.
System: patients with schizophrenia in the acute exacerbation phase
Test: First stage phase II clinical trial: safety (adverse events, serious adverse events, side effects, ECG, laboratory tests)
Format: in vivo, human
Procedure: According to the procedures as shown in Table 1 as described below, the placebo-controlled double blind experiment was done on 149 patients with schizophrenia in the acute exacerbation phase at 15 facilities in USA. The efficacy and safeness were studied when SM-13496 at a dose of 40 mg or 120 mg, or a placebo was orally administered once a day for 6 weeks after placebo washout.

[1] = 120 mg orally once a day for 6 weeks, 49 subjects

O=C1[C@@H]2[C@@H]3CC[C@@H](C3)[C@@H]2C(=O)N1C[C@@H]1CCCC[C@H]1CN1CCN(c2nsc3ccccc23)CC1 [SM-13496, (1R,2S,3R,4S)-N-[(1R,2R)-2-[4-(1,2-benzoisothiazol-3-yl)-1-piperazinyl-methyl]-1-cyclohexylmethyl]-2,3-bicyclo[2.2.1]heptanedicarboximide hydrochloride]
Number of subjects showing serious adverse events (%) [1]: 3 (6) number of subjects (%) | Number of subjects who drop out from the trial due to adverse events (%) [1]: 6 (12) number of subjects (%) | Occurrence of adverse event: Akathisia (120 mg, 6 weeks, 49 subjects): 7 (14) number of subjects (%) | Occurrence of adverse event: Digestive disturbance (120 mg, 6 weeks, 49 subjects): 2 (4) number of subjects (%) | Occurrence of adverse event: Drowsiness (120 mg, 6 weeks, 49 subjects): 5 (10) number of subjects (%) | Occurrence of adverse event: Exacerbation of schizophrenia (120 mg, 6 weeks, 49 subjects): 1 (2) number of subjects (%) | Occurrence of adverse event: Free-floating vertigo (excluding rotatory vertigo) (120 mg, 6 weeks, 49 subjects): 5 (10) number of subjects (%) | Occurrence of adverse event: Headache (120 mg, 6 weeks, 49 subjects): 3 (6) number of subjects (%) | Occurrence of adverse event: Nausea (120 mg, 6 weeks, 49 subjects): 11 (22) number of subjects (%) | Occurrence of adverse event: Suppression (120 mg, 6 weeks, 49 subjects): 7 (14) number of subjects (%) | Occurrence of serious adverse event: Exacerbation of paranoia (120 mg, 6 weeks, 49 subjects): 0 (0) number of subjects (%) | Occurrence of serious adverse event: Exacerbation of schizophrenia (120 mg, 6 weeks, 49 subjects): 1 (2) number of subjects (%) | Occurrence of serious adverse event: Paranoid schizophrenia (120 mg, 6 weeks, 49 subjects): 1 (2) number of subjects (%) | Occurrence of serious adverse event: Psychosis aggravated (120 mg, 6 weeks, 49 subjects): 0 (0) number of subjects (%) | Occurrence of side effects (%) (120 mg, 6 weeks, 49 subjects): 35 (71) number of subjects (%) | Serious adverse events: Total (%) (120 mg, 6 weeks, 49 subjects): 2 (4) number of subjects (%) | Side effect: Abdominal pain (Gastroenteric disturbance) (120 mg, 6 weeks, 49 subjects): 0 (0) number of subjects (%) | Side effect: Abnormal electrocardiogram (Laboratory assay) (120 mg, 6 weeks, 49 subjects): 0 (0) number of subjects (%) | Side effect: Abnormal liver function tests (Laboratory assay) (120 mg, 6 weeks, 49 subjects): 1 (2) number of subjects (%) | Side effect: Agitation (Mental disturbance) (120 mg, 6 weeks, 49 subjects): 1 (2) number of subjects (%) | Side effect: Agitation aggravated (Mental disturbance) (120 mg, 6 weeks, 49 subjects): 2 (4) number of subjects (%) | Side effect: Akathisia (Nervous system disorder) (120 mg, 6 weeks, 49 subjects): 7 (14) number of subjects (%) | Side effect: Akathisia aggravated (Nervous system disorder) (120 mg, 6 weeks, 49 subjects): 0 (0) number of subjects (%) | Side effect: Anarthria (Nervous system disorder) (120 mg, 6 weeks, 49 subjects): 1 (2) number of subjects (%) | Side effect: Anorexia (Metabolic disturbances and nutritional disturbance) (120 mg, 6 weeks, 49 subjects): 0 (0) number of subjects (%) | Side effect: Anxiety aggravated (Mental disturbance) (120 mg, 6 weeks, 49 subjects): 0 (0) number of subjects (%) | Side effect: Articular rigidity (Musculoskeletal system and connective tissue disorder) (120 mg, 6 weeks, 49 subjects): 0 (0) number of subjects (%) | Side effect: Blurred vision (Ocular disturbance) (120 mg, 6 weeks, 49 subjects): 1 (2) number of subjects (%) | Side effect: Breathing difficulty (Disturbance in respiratory organ, chest and mediastinum) (120 mg, 6 weeks, 49 subjects): 1 (2) number of subjects (%) | Side effect: Cervical rigidity (Musculoskeletal system and connective tissue disorder) (120 mg, 6 weeks, 49 subjects): 0 (0) number of subjects (%) | Side effect: Cogwheel rigidity (Nervous system disorder) (120 mg, 6 weeks, 49 subjects): 1 (2) number of subjects (%) | Side effect: Constipation (Gastroenteric disturbance) (120 mg, 6 weeks, 49 subjects): 0 (0) number of subjects (%) | Side effect: Decrease in appetite (Metabolic disturbances and nutritional disturbance) (120 mg, 6 weeks, 49 subjects): 1 (2) number of subjects (%) | Side effect: Diarrhea (Gastroenteric disturbance) (120 mg, 6 weeks, 49 subjects): 0 (0) number of subjects (%) | Side effect: Drowsiness (Nervous system disorder) (120 mg, 6 weeks, 49 subjects): 5 (10) number of subjects (%) | Side effect: Dry eye (Ocular disturbance) (120 mg, 6 weeks, 49 subjects): 0 (0) number of subjects (%) | Side effect: Dry mouth (Gastroenteric disturbance) (120 mg, 6 weeks, 49 subjects): 0 (0) number of subjects (%) | Side effect: Dyspepsia (Gastroenteric disturbance) (120 mg, 6 weeks, 49 subjects): 2 (4) number of subjects (%) | Side effect: Dystonic reaction (Nervous system disorder) (120 mg, 6 weeks, 49 subjects): 0 (0) number of subjects (%) | Side effect: Exacerbation of insomnia (Mental disturbance) (120 mg, 6 weeks, 49 subjects): 1 (2) number of subjects (%) | Side effect: External otitis (Infection and parasitosis) (120 mg, 6 weeks, 49 subjects): 0 (0) number of subjects (%) | Side effect: Extrapyramidal disease (Nervous system disorder) (120 mg, 6 weeks, 49 subjects): 3 (6) number of subjects (%) | Side effect: Fatigue (Total disability and local condition) (120 mg, 6 weeks, 49 subjects): 1 (2) number of subjects (%) | Side effect: Fatigue aggravated (Total disability and local condition) (120 mg, 6 weeks, 49 subjects): 0 (0) number of subjects (%) | Side effect: Flatulence (Gastroenteric disturbance) (120 mg, 6 weeks, 49 subjects): 0 (0) number of subjects (%) | Side effect: Flushing (Vascular diseases) (120 mg, 6 weeks, 49 subjects): 0 (0) number of subjects (%) | Side effect: Free-floating vertigo (excluding rotatory vertigo) (Nervous system disorder) (120 mg, 6 weeks, 49 subjects): 5 (10) number of subjects (%) | Side effect: Frequent urination (Renal Injury and urinary disorder) (120 mg, 6 weeks, 49 subjects): 0 (0) number of subjects (%) | Side effect: Glossoplegia (Nervous system disorder) (120 mg, 6 weeks, 49 subjects): 0 (0) number of subjects (%) | Side effect: Headache (Nervous system disorder) (120 mg, 6 weeks, 49 subjects): 1 (2) number of subjects (%) | Side effect: Heavy feeling (Musculoskeletal system and connective tissue disorder) (120 mg, 6 weeks, 49 subjects): 0 (0) number of subjects (%) | Side effect: Hot flashes (Vascular diseases) (120 mg, 6 weeks, 49 subjects): 1 (2) number of subjects (%) | Side effect: Hot sensation (Total disability and local condition) (120 mg, 6 weeks, 49 subjects): 0 (0) number of subjects (%) | Side effect: Increase in creatine phosphokinase level in the blood (Laboratory assay) (120 mg, 6 weeks, 49 subjects): 0 (0) number of subjects (%) | Side effect: Increase in prolactin level in the blood (Laboratory assay) (120 mg, 6 weeks, 49 subjects): 1(2) number of subjects (%) | Side effect: Increase in total protein (Laboratory assay) (120 mg, 6 weeks, 49 subjects): 0 (0) number of subjects (%) | Side effect: Insomnia (Mental disturbance) (120 mg, 6 weeks, 49 subjects): 1 (2) number of subjects (%) | Side effect: Laryngopharynx pain (Disturbance in respiratory organ, chest and mediastinum) (120 mg, 6 weeks, 49 subjects): 0 (0) number of subjects (%) | Side effect: Loose stools (Gastroenteric disturbance) (120 mg, 6 weeks, 49 subjects): 1 (2) number of subjects (%) | Side effect: Melalgia (Musculoskeletal system and connective tissue disorder) (120 mg, 6 weeks, 49 subjects): 1 (2) number of subjects (%) | Side effect: Muscle stiffness (Musculoskeletal system and connective tissue disorder) (120 mg, 6 weeks, 49 subjects): 1 (2) number of subjects (%) | Side effect: Myalgic pain (Musculoskeletal system and connective tissue disorder) (120 mg, 6 weeks, 49 subjects): 1 (2) number of subjects (%) | Side effect: Nausea (Gastroenteric disturbance) (120 mg, 6 weeks, 49 subjects): 9 (18) number of subjects (%) | Side effect: Nightmare (Mental disturbance) (120 mg, 6 weeks, 49 subjects): 1 (2) number of subjects (%) | Side effect: Palpitation (Heart problems) (120 mg, 6 weeks, 49 subjects): 1 (2) number of subjects (%) | Side effect: Parotiditis (Infection and parasitosis) (120 mg, 6 weeks, 49 subjects): 0 (0) number of subjects (%) | Side effect: Polyuria (Renal Injury and urinary disorder) (120 mg, 6 weeks, 49 subjects): 0 (0) number of subjects (%) | Side effect: Pruritus (Disturbance in Skin and Hypodermis) (120 mg, 6 weeks, 49 subjects): 0 (0) number of subjects (%) | Side effect: Psychosis aggravated (Mental disturbance) (120 mg, 6 weeks, 49 subjects): 2 (4) number of subjects (%) | Side effect: Restlessness (Mental disturbance) (120 mg, 6 weeks, 49 subjects): 1 (2) number of subjects (%) | Side effect: Salivary hypersecretion (Gastroenteric disturbance) (120 mg, 6 weeks, 49 subjects): 0 (0) number of subjects (%) | Side effect: Sinus tachycardia (Heart problems) (120 mg, 6 weeks, 49 subjects): 1 (2) number of subjects (%) | Side effect: Sleepiness (Total disability and local condition) (120 mg, 6 weeks, 49 subjects): 2 (4) number of subjects (%) | Side effect: Suppression (Nervous system disorder) (120 mg, 6 weeks, 49 subjects): 7 (14) number of subjects (%) | Side effect: Tinea pedis (Infection and parasitosis) (120 mg, 6 weeks, 49 subjects): 1 (2) number of subjects (%) | Side effect: Tongue disturbance (Gastroenteric disturbance) (120 mg, 6 weeks, 49 subjects): 0 (0) number of subjects (%) | Side effect: Tremor (Nervous system disorder) (120 mg, 6 weeks, 49 subjects): 3 (6) number of subjects (%) | Side effect: Trismus (Nervous system disorder) (120 mg, 6 weeks, 49 subjects): 1 (2) number of subjects (%) | Side effect: Urinary tract infection (Infection and parasitosis) (120 mg, 6 weeks, 49 subjects): 0 (0) number of subjects (%) | Side effect: Vomiting (Gastroenteric disturbance) (120 mg, 6 weeks, 49 subjects): 3 (6) number of subjects (%) | Side effect: Weight loss (Laboratory assay) (120 mg, 6 weeks, 49 subjects): 2 (4) number of subjects (%) | Akathisia (adverse event) (120 mg-treated group): 14% | Digestive disturbance compared to the placebo-treated group (120 mg-treated group): less observed | Exacerbation of schizophrenia (adverse event) (120 mg-treated group): 2% | Nausea compared to the other groups (120 mg-treated group): more observed | Ratio of the subjects showing suppression (120 mg-treated group): 14% | Serious adverse events (120 mg-treated group): 2 cases | Change in body temperature, respiration rate, funduscopic examination and slit-lamp microscopy (SM-13496-treated groups): no clinically significant change | Occurrence of dystonic reaction (SM-13496-treated groups): less than 4% | Prolactin level in the blood (SM-13496-treated groups): moderate increase | Number of subjects who dropped out from the trial due to the adverse events compared to placebo (both groups treated by two doses): higher | Occurrence of the adverse events compared to placebo (groups treated by SM-13496): the same as that in the placebo-treated group
